Test results published in patent publication US5043450A, “8-alkoxyquinolonecarboxylic acid and salts thereof” (priority 1986, dated 1991).

How the values were obtained:
Format in all cases: cell-based
C. perfringens KYA 13123 = assay: microbe, parasite or virus in culture; conditions: Clostridium perfringens, KYA13123
E. coli ATCC 10536 = assay: Antibacterial spectra, MIC; conditions: Escherichia coli, ATCC10536
Bacilus subtilis PCI 219 = assay: Antibacterial spectra, MIC; conditions: Bacillus subtilis, PCI219
Pst. micros UPI 5464-1 = assay: Antibacterial spectra, MIC; conditions: Parvimonas micra, UPI54641
[1] = system: Propionibacterium acens 11828; assay: Antibacterial spectra, MIC
[2] = system: S. aureus IID 670 (Terajima); assay: Antibacterial spectra, MIC; conditions: Staphylococcus aureus, IID670
[3] = system: Citrobacter freundii IID 976; assay: Antibacterial spectra, MIC; conditions: IID976
P. aeruginosa IID 1210 = assay: Antibacterial spectra, MIC; conditions: Pseudomonas aeruginosa, IID1210
P. maltophilia GIFU 2491 = assay: Antibacterial spectra, MIC; conditions: Stenotrophomonas maltophilia, GIFU2491
[4] = system: Alcaligenes faecalis 0114002; assay: Antibacterial spectra, MIC
F. necrophorum S-45 = assay: Antibacterial spectra, MIC; conditions: Fusobacterium necrophorum, S45
[5] = system: Morganella morganii IID 602; assay: Antibacterial spectra, MIC; conditions: IID602
K. pneumoniae 1-220S = assay: Antibacterial spectra, MIC; conditions: Klebsiella pneumoniae, 1220S
[6] = system: Peptococcus magnus KY 017; assay: Antibacterial spectra, MIC; conditions: Finegoldia magna, KY017
C. ramosum = assay: Antibacterial spectra, MIC; conditions: Thomasclavelia ramosa
[7] = system: Acinetobacter anitratus IID 876; assay: Antibacterial spectra, MIC; conditions: Acinetobacter calcoaceticus, IID876
[8] = system: Eubacterium lentum GAI 5242; assay: Antibacterial spectra, MIC; conditions: Eggerthella lenta, GAI5242
B. fragilis 25285 = assay: Antibacterial spectra, MIC; conditions: Bacteroides fragilis
B. vulgatus KYA 29327 = assay: Antibacterial spectra, MIC; conditions: Phocaeicola vulgatus, KYA29327
[9] = system: Serratia marcescens IID 618; assay: Antibacterial spectra, MIC; conditions: IID618
[10] = system: Bacteroides fragilis GM 7000; assay: Antibacterial spectra, MIC; conditions: GM7000
[11] = system: Veillonella parvula KYA 10790; assay: Antibacterial spectra, MIC; conditions: KYA10790
[12] = system: Escherichia coli NIHJ JC-2; assay: Antibacterial spectra, MIC; conditions: NIHJJC2
[13] = system: Clostridium difficile I-E; assay: Antibacterial spectra, MIC; conditions: Clostridioides difficile
[14] = system: Yersinia enterocolitica IID 981; assay: Antibacterial spectra, MIC; conditions: IID981
P. mirabilis IID 994 = assay: Antibacterial spectra, MIC; conditions: Proteus mirabilis, IID994
S. aureus Smith = assay: Antibacterial spectra, MIC; conditions: Staphylococcus aureus
S. epidermidis IID 866 = assay: Antibacterial spectra, MIC; conditions: Staphylococcus epidermidis, IID866
[15] = system: Staphylococcus aureus 209 P; assay: Antibacterial spectra, MIC
[16] = system: Peptostreptococcus anaerobius KYA 27337; assay: Antibacterial spectra, MIC; conditions: KYA27337
[17] = system: Salmonella enteritidis IID 604; assay: Antibacterial spectra, MIC; conditions: Salmonella enterica
F. varium KYA 8501 = assay: Antibacterial spectra, MIC; conditions: Fusobacterium varium, KYA8501
E. coli ML 4707 = assay: Antibacterial spectra, MIC; conditions: Escherichia coli, ML4707; 10^6 cells/ml; Gram -
Protocol: (§1) The antibacterial test was carried out according to the method designated by Japan Society of Chemotherapy.

Shigella sonnei IID 969 = assay: Antibacterial spectra, MIC; conditions: IID969, 10^6 cells/ml, Gram -
Protocol: as §1

[18] = system: Proteus vulgaris IFO 3167; assay: Antibacterial spectra, MIC; conditions: IFO3167, 10^6 cells/ml, Gram -
Protocol: as §1

[19] = system: B. thetaiotaomicron (0661); assay: Antibacterial spectra, MIC; conditions: Bacteroides thetaiotaomicron
P. aeruginosa IFO 12689 = assay: Antibacterial spectra, MIC; conditions: Pseudomonas aeruginosa, IFO12689
[20] = system: Enterobacter cloacae IID 977; assay: Antibacterial spectra, MIC; conditions: IID977
P. cepacia GIFU 518 = assay: Antibacterial spectra, MIC; conditions: Burkholderia cepacia, GIFU518
[21] = system: Fusobacterium mortiferum 4249; assay: Antibacterial spectra, MIC
B. fragilis 0558 = assay: Antibacterial spectra, MIC; conditions: Bacteroides fragilis
B. distasonis 8503 = assay: Antibacterial spectra, MIC; conditions: Parabacteroides distasonis
[22] = system: Klebsiella pneumoniae KY(GN)6445; assay: Antibacterial spectra, MIC
[23] = system: Pseudomonas aeruginosa V-1; assay: Antibacterial spectra, MIC; conditions: V1

Measured: MIC

COc1c(N2CCC(CN)C2)c(F)cc2c(=O)c(C(=O)O)cn(C3CC3)c12 (centres unmarked) [Exp. 7, 7-(3-aminomethyl-1-pyrrolidinyl)-1-cyclopropyl-6-fluoro-1,4-dihydro-8-methoxy-4-oxo-3-quinolinecarboxylic acid]
0.025 µg/mL: Bacilus subtilis PCI 219 | [2] | [12] | [15]
0.78 µg/mL: P. aeruginosa IID 1210 | C. ramosum | F. varium KYA 8501 | P. aeruginosa IFO 12689 | P. cepacia GIFU 518 | B. distasonis 8503
0.2 µg/mL: C. perfringens KYA 13123 | P. maltophilia GIFU 2491 | F. necrophorum S-45 | [5] | B. fragilis 25285 | [9] | [21] | B. fragilis 0558 | [23]
0.1 µg/mL: Pst. micros UPI 5464-1 | K. pneumoniae 1-220S | [11] | [14] | [20]
0.39 µg/mL: [1] | [4] | [8] | B. vulgatus KYA 29327 | [10] | [13] | [19]
0.05 µg/mL: all other assays above
